# Measured values: US20020132225A1, “Compositions and methods for prolonging survival of chilled platelets” (priority 2000, published 2002)
# What was measured:
# [1] = test system: stimulated THP-1 cells; test: In vitro phagocytic assay: phagocytosis of chilled platelets by THP-1 cells (FACS); assay type: cell-based, human; details: for inhibition of phagocytosis of platelets by phagocytic cells: up to 200 mM
# Description: As a first step toward evaluation of this strategy, we have developed an in vitro phagocytic assay to study the interaction between chilled platelets and mononuclear phagocytes. […] These measurements can be made with a fluorescence-activated cell sorter (FACS). […] None of these sugars had any effect on platelet aggregation induced by thrombin or by ristocetin. The latter result is particularly important, because it reflects platelet hemostatic function mediated by GPIb interaction with von Willebrand factor.
# In these experiments (FIG. 11, 12, and 13) platelets were loaded with fluorescent dye CM-Orange, then incubated for 1 h at 22° C. (control), 4° C. (chilled) or exposed to UV (UV). Phagocytosis was quantified by measuring the incorporation of CM-orange-fluorescence (CM-Orange labeled platelets) into monocyte-sized cells. Bound versus ingested platelets were separated by labeling the cells after the phagocytic period with FITC-labeled anti-integrin-β3 (CD 61) antibodies, e.g., bound platelets will be FITC positive, ingested platelets will be negative. The uptake of control versus chilled platelets was compared. Chilled platelets are phagocytized because they fail to label with FITC-conjugated anti-β3 antibodies (CM-Orange positive), whereas control platelets are poorly ingested although some platelets are bound to the monocyte surface. From this experiment, the ratio of 22° C. to 4° C. ingested platelets (CM-Orange positive) can be calculated. […] These findings indicate that the cold platelet clearance differs from UV-induced clearance.
# [2] = test system: OG-permeant platelets; test: Actin filament barbed end exposure in chilled OG-permeabilized platelets; assay type: cell-based, human; details: OG-permeant platelets cooled
# Experimental: We studied the biochemical and structural basis for the cold-induced shape transformation in human platelets and found it to require net actin assembly. To understand the signals involved in this process, we applied a permeabilization scheme to the cooling process that we have used to dissect PAR-1 mediated actin assembly. In this approach, platelets are first permeabilized with 0.25% octylglucoside (OG), then chilled to 4° C. for 5 min and rewarmed to 37° C. Resting platelets remained discoid at 37° C. after permeabilization with OG but changed shape when chilled. Chilled OG-permeant platelets have blebs on their surfaces and elaborate filopodial processes. […] Rewarming is required to assay filament end numbers, because we discovered that OG-treated platelets reseal in the cold, but become permeable again when rewarmed. We assayed the number of actin filament barbed ends biochemically by monitoring the acceleration of pyrene-actin polymerization rates fluorometrically in the presence and absence of CB (Hartwig, J. et al., Cell 82:643-653).
molecule,measurement,setting,value
O=C[C@H](O)[C@@H](O)[C@@H](O)[C@H](O)CO [D-galactose],inhibition of phagocytosis of platelets by phagocytic cells,[1],not
O=C[C@H](O)[C@@H](O)[C@H](O)[C@H](O)CO [D-glucose],inhibition of phagocytosis of platelets by phagocytic cells,[1],not
Nc1nc2c(ncn2[C@@H]2O[C@H](COP(=O)(O)OP(O)(O)=S)[C@@H](O)[C@H]2O)c(=O)[nH]1 [GDPβS],effect on barbed ends exposed upon cooling,[2],no effect
Nc1nc2c(ncn2[C@@H]2O[C@H](COP(=O)(O)OP(=O)(O)OP(O)(O)=S)[C@@H](O)[C@H]2O)c(=O)[nH]1 [GTPγS],effect on barbed ends exposed upon cooling,[2],no effect
CC(=O)N[C@H]1C(O)O[C@H](CO)[C@@H](O)[C@@H]1O (stereo partly drawn) [N-acetyl-D-glucosamine],inhibition of phagocytosis of platelets by phagocytic cells,[1],not
COC1OC(CO)C(O)C(O)C1O [α-methyl-D-glycoside],inhibition of CM-Orange pellet phagocytosis by stimulated THP-1 cells,[1]; FIG. 11-13,concentration dependent inhibition
N17cdc42: negative dominant form of cdc42 GTPase,effect on barbed ends exposed upon cooling,[2],failed to inhibit
